Earlier results as cited in patent publication US20040127402A1, “Injectible composition and method for treating degenerative animal joints” (priority 2002, published 2004).

Assays:
[1] = test system: osteoarthritis
[2] = animal studies

Hyaluronic acid
duration of superiority to oral medications ([1]; in vivo, po): up to six
duration of positive benefits ([1]; joint lavage prior to hyaluronic acid therapy): up to one
chondroprotective effect [2]: mild chondroprotective effect
